In ChEMBL document CHEMBL3997848 (Bioorg Med Chem, 2017):
Square brackets hold non-standard residues; d marks the D form. Peptide text beside a SMILES is read from it.

Assays:
[1] = molecular target: Opioid receptor, delta 1b (Danio rerio, UniProt B3DH72); experiment: Displacement of [3H]DPN from zebrafish delta 1b opioid receptor expressed in HEK293 cell membranes after 4 hrs by scintillation counting method
[2] = molecular target: Mu opioid receptor-like OR2 (Danio rerio, UniProt B8JHS2); experiment: Displacement of [3H]DPN from zebrafish mu opioid receptor expressed in HEK293 cell membranes after 1 hr by scintillation counting method
[3] = system: Mus musculus; experiment: Antinociceptive activity in C57BL6/J mouse assessed as analgesia at 5 mg/kg, ip measured after 30 mins by tail flick test (reference value: -7%); format: functional
[4] = system: Mus musculus; experiment: Antinociceptive activity in C57BL6/J mouse assessed as analgesia at 8 mg/kg, ip measured after 120 mins by tail flick test (reference value: -8%); format: functional
[5] = system: Mus musculus; experiment: Antinociceptive activity in C57BL6/J mouse assessed as analgesia at 8 mg/kg, ip measured after 60 mins by tail flick test (reference value: 3%); format: functional
[6] = system: Mus musculus; experiment: Antinociceptive activity in C57BL6/J mouse assessed as analgesia at 5 mg/kg, ip measured after 60 mins by tail flick test (reference value: 3%); format: functional
[7] = system: Mus musculus; experiment: Antinociceptive activity in C57BL6/J mouse assessed as analgesia at 8 mg/kg, ip measured after 30 mins by tail flick test (reference value: -7%); format: functional
[8] = system: Mus musculus; experiment: Antinociceptive activity in C57BL6/J mouse assessed as analgesia at 8 mg/kg, ip measured after 90 mins by tail flick test (reference value: 10%); format: functional
[9] = molecular target: Opioid receptor homologue (Danio rerio, UniProt A3QJX7); experiment: Displacement of [3H]DPN from zebrafish delta 1a opioid receptor expressed in HEK293 cell membranes after 1 hr by scintillation counting method
[10] = system: Mus musculus; experiment: Antinociceptive activity in C57BL6/J mouse assessed as analgesia at 5 mg/kg, ip measured after 90 mins by tail flick test (reference value: 10%); format: functional
[11] = system: Mus musculus; experiment: Antinociceptive activity in C57BL6/J mouse assessed as analgesia at 5 mg/kg, ip measured after 120 mins by tail flick test (reference value: -8%); format: functional

Opioid receptor homologue, sequence (A3QJX7 whole entry): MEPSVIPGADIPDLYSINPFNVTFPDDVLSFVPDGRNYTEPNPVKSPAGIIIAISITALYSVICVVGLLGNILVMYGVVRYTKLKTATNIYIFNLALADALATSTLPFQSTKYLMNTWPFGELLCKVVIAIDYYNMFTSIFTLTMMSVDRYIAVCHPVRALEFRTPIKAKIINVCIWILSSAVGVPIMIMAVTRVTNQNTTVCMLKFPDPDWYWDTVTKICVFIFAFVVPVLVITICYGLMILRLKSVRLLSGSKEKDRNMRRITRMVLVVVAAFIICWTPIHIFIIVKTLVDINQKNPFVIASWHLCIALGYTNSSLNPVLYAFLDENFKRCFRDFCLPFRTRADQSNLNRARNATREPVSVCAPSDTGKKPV
Mu opioid receptor-like OR2, sequence (B8JHS2 whole entry): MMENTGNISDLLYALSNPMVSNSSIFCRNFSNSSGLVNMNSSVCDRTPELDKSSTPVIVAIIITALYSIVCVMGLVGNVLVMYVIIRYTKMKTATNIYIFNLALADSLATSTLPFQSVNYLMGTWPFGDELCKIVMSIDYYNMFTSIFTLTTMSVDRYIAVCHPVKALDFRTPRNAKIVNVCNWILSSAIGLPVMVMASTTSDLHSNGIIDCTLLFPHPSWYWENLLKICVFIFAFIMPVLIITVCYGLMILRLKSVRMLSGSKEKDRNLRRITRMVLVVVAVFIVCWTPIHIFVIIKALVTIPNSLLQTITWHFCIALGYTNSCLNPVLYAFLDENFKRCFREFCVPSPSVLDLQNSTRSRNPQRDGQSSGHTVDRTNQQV
Opioid receptor, delta 1b, sequence (B3DH72 whole entry): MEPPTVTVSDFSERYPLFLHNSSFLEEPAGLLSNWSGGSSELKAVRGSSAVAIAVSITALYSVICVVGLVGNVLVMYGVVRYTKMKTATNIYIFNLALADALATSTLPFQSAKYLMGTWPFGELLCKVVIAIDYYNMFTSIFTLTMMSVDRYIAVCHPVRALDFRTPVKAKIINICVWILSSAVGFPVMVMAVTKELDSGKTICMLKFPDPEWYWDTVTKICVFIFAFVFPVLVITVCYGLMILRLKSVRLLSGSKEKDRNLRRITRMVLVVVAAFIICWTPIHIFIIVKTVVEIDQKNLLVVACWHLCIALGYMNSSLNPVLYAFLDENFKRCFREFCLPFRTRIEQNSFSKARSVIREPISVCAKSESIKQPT

Which Ki [1] does the source give for `CSCC[C@H](NC(=O)[C@H](Cc1ccccc1)NC(=O)CNC(=O)CNC(=O)[C@@H](N)Cc1ccc(O)cc1)C(=O)O` here?
Its Ki is 45 nM.

And the Ki [2]?
Its Ki is 684 nM.

With `CSCC[C@@H](NC(=O)[C@@H](N)Cc1ccc(O)cc1)C(=O)NCC(=O)N[C@@H](Cc1ccccc1)C(=O)N1C[C@@H](O[C@H]2O[C@H](CO)[C@@H](O)[C@H](O)[C@@H]2O)C[C@H]1C(N)=O` as the compound, how does the Ki [1] read?
The Ki was 536 nM.

What about the Activity [3] of the same compound?
The Activity was 40%.

And the Activity [4]?
The Activity was 45%.

And the Activity [5]?
Its Activity is 62%.

What about the Activity [6] of the same compound?
Its Activity is 60%.

And the Activity [7]?
The Activity was 45%.

What about the Activity [8] of the same compound?
Its Activity is 35%.

And the Ki [9]?
Its Ki is 609 nM.

And the Activity [10]?
Its Activity is 50%.

What about the Activity [11] of the same compound?
The Activity was 40%.

And the Ki [2]?
The Ki was 239 nM.

With `CSCC[C@@H](NC(=O)[C@@H](N)Cc1ccc(O)cc1)C(=O)NCC(=O)N[C@@H](Cc1ccccc1)C(=O)N1C[C@@H](O[C@@H]2O[C@H](CO)[C@@H](O)[C@H](O)[C@H]2O)C[C@H]1C(N)=O` as the compound, how does the Ki [1] read?
Its Ki is 159 nM.

And the Ki [9]?
Its Ki is 389 nM.

What about the Ki [2] of the same compound?
The Ki was 313 nM.

For `CSCC[C@@H](NC(=O)[C@@H](N)Cc1ccc(O)cc1)C(=O)NCC(=O)N[C@@H](Cc1ccccc1)C(=O)N1C[C@@H](O[C@@H]2O[C@H](CO)[C@@H](O[C@H]3O[C@@H](CO)[C@H](O)[C@@H](O)[C@@H]3O)[C@H](O)[C@H]2O)C[C@H]1C(N)=O`, which Ki [1] is on record?
Its Ki is 528 nM.

What about the Ki [9] of the same compound?
Its Ki is 843 nM.

And the Ki [2]?
Its Ki is 223 nM.

How did the Ki [1] turn out when `CSCC[C@@H](NC(=O)[C@@H](N)Cc1ccc(O)cc1)C(=O)NCC(=O)N[C@@H](Cc1ccccc1)C(=O)N1C[C@@H](O[C@@H]2O[C@H](CO)[C@@H](O[C@H]3O[C@@H](CO)[C@@H](O)[C@@H](O)[C@@H]3O)[C@H](O)[C@H]2O)C[C@H]1C(N)=O` was run?
Its Ki is 559 nM.

And the Ki [9]?
The Ki was 635 nM.

What about the Ki [2] of the same compound?
Its Ki is 203 nM.

Which Ki [1] does the source give for `CSCC[C@@H](NC(=O)[C@@H](N)Cc1ccc(O)cc1)C(=O)NCC(=O)N[C@@H](Cc1ccccc1)C(=O)N1C[C@@H](O[C@@H]2O[C@H](CO)[C@H](O)[C@H](O)[C@H]2O)C[C@H]1C(N)=O` here?
Its Ki is 518 nM.

What about the Ki [9] of the same compound?
Its Ki is 468 nM.

What about the Ki [2] of the same compound?
Its Ki is 383 nM.

With `CSCC[C@@H](NC(=O)[C@@H](N)Cc1ccc(O)cc1)C(=O)NCC(=O)N[C@@H](Cc1ccccc1)C(=O)N1CCC[C@H]1C(N)=O` (H-Y[dM]GFP-NH2) as the compound, how does the Ki [1] read?
The Ki was 256 nM.

What about the Ki [9] of the same compound?
The Ki was 566 nM.

And the Ki [2]?
Its Ki is 269 nM.

How did the Activity [3] turn out when `CN1CC[C@]23c4c5ccc(O)c4O[C@H]2[C@@H](O)C=C[C@H]3[C@H]1C5` [MORPHINE] was run?
The Activity was 30%.

What about the Activity [6] of the same compound?
The Activity was 51%.

What about the Activity [10] of the same compound?
Its Activity is 45%.

What about the Activity [11] of the same compound?
The Activity was 30%.
